Values after ≈ are worked out from the molar mass of the structure shown. Like-named read-outs stand apart in the source and are kept apart here. Where a SMILES comes first, the peptide text is derived from it. Bridges are numbered along the chain shown (N, C = ends). [ ]: non-standard residue; d: D form. The star is where a group is joined. Ileψ(thiazoline)Cys = CC[C@H](C)[C@H](N)C1=N[C@H](C(=O)*)CS1; dOrn = NCCC[C@@H](N)C(=O)O
Assays:
[1] = tested on: Janthinobacterium lividum strains; test: Internal antibiotic resistance tests (BD BBL Sensi-Disc, zone of inhibition); format: cell-based; conditions: all 5 strains; disc content per antibiotic (e.g. penicillin 10 IU); FIG. 5
Experimental: One Janthinobacterium lividum colony of 3-day old grown in 50% BHI agar was mixed well in 1 ml of 1×PBS buffer, diluted 10× and 100×, respectively. 200 μl of diluted Janthinobacterium lividum cells were evenly plated onto R2A/BHI agar plates in triplicate in 150 mm petri dishes. Antibiotic discs (BD BBL Sensi-Disc antimicrobial susceptibility test discs) were dispensed using a Disc dispenser (BD BBL Sensi-Disc Designer Dispenser System, 12-Place). Plates were incubated for 2-3 days at room temperature and imaged at the end of incubation.
The sensitivity of Janthinobacterium lividum to antibiotics is reflected by a clear zone of inhibition of Janthinobacterium lividum cells surrounding the antibiotic discs. The zone of inhibition was measured using ImageJ and was transformed into cm for analysis.

[2] = tested on: E. Coli ATCC25922; test: Antibiotic MIC tests; format: cell-based; conditions: Escherichia coli
[3] = tested on: DB00121; test: Antibiotic MIC tests; format: cell-based, Janthinobacterium lividum; conditions: strain DB00121
Experimental: (§1) The antibiotic resistance profile and MICs tests were performed using Janthinobacterium lividum grown from cultures purified and grown in vegitone LB broth.

[4] = tested on: DB00118; test: Antibiotic MIC tests; format: cell-based, Janthinobacterium lividum; conditions: strain DB00118
Experimental: as §1

[5] = tested on: DB02473; test: Antibiotic MIC tests; format: cell-based, Janthinobacterium lividum; conditions: strain DB02473
Experimental: as §1

[6] = tested on: DB02378; test: Antibiotic MIC tests; format: cell-based, Janthinobacterium lividum; conditions: strain DB02378
Experimental: as §1

[7] = tested on: Janthinobacterium lividum strains; test: Antibiotic MIC tests, resistance profile in words; format: cell-based; conditions: Table 7 and 8
Experimental: as §1

[8] = tested on: E. Coli ATCC25922; conditions: cited from earlier work
[9] = Janthinobacterium lividum, read-out: MIC

Compound: CN[C@H](CC(C)C)C(=O)N[C@H]1C(=O)N[C@@H](CC(N)=O)C(=O)N[C@H]2C(=O)N[C@H]3C(=O)N[C@H](C(=O)N[C@H](C(=O)O)c4cc(O)cc(O)c4-c4cc3ccc4O)[C@H](O)c3ccc(c(Cl)c3)Oc3cc2cc(c3O[C@@H]2O[C@H](CO)[C@@H](O)[C@H](O)[C@H]2O[C@H]2C[C@](C)(N)[C@H](O)[C@H](C)O2)Oc2ccc(cc2Cl)[C@H]1O [vancomycin]
- sensitivity of Janthinobacterium lividum to antibiotic discs [1]: sensitive

Compound: CC[C@H]1OC(=O)[C@H](C)[C@@H](O[C@H]2C[C@@](C)(OC)[C@@H](O)[C@H](C)O2)[C@H](C)[C@@H](O[C@@H]2O[C@H](C)C[C@H](N(C)C)[C@H]2O)[C@](C)(O)C[C@@H](C)C(=O)[C@H](C)[C@@H](O)[C@]1(C)O [Erythromycin]
- MIC [2]: 64 µg/mL (≈ 87.2 µM)
- sensitivity of Janthinobacterium lividum to antibiotic discs [1]: sensitive
- MIC [3, 9]: 8 µg/mL (≈ 10.9 µM)
- MIC [4, 9]: 15 µg/mL (≈ 20.4 µM)
- MIC [5, 9]: 15 µg/mL (≈ 20.4 µM)
- MIC [6, 9]: 8 µg/mL (≈ 10.9 µM)

Compound: Amoxicillin clavulanate
- MIC [3]: 0.5 µg/mL
- MIC [4]: 1 µg/mL
- MIC [5]: 1 µg/mL
- MIC [6]: 1 µg/mL
- sensitivity of Janthinobacterium lividum strains to antibiotics [7]: less sensitive

Compound: CC(=O)OCC1=C(C(=O)O)N2C(=O)[C@@H](NC(=O)Cc3cccs3)[C@H]2SC1 [cephalothin]
- sensitivity of Janthinobacterium lividum to antibiotic discs [1]: sensitive

Compound: C[C@H]1[C@H](NC(=O)/C(=N\OC(C)(C)C(=O)O)c2csc(N)n2)C(=O)N1S(=O)(=O)O [Aztreonam]
- MIC [2]: 0.25 µg/mL (≈ 0.574 µM)
- MIC [3, 9]: 16 µg/mL (≈ 36.7 µM)
- MIC [4, 9]: 32 µg/mL (≈ 73.5 µM)
- MIC [5, 9]: 16 µg/mL (≈ 36.7 µM)
- MIC [6, 9]: 16 µg/mL (≈ 36.7 µM)
- sensitivity of Janthinobacterium lividum strains to antibiotics [7]: less sensitive

Compound: CC[C@H](C)[C@H](N)C1=N[C@H](C(=O)N[C@@H](CC(C)C)C(=O)N[C@H](CCC(=O)O)C(=O)N[C@H](C(=O)N[C@H]2CCCCNC(=O)[C@H](CC(N)=O)NC(=O)[C@@H](CC(=O)O)NC(=O)[C@H](Cc3cnc[nH]3)NC(=O)[C@@H](Cc3ccccc3)NC(=O)[C@H]([C@@H](C)CC)NC(=O)[C@@H](CCCN)NC2=O)[C@@H](C)CC)CS1 [Bacitracin] ({Ileψ(thiazoline)Cys}-L[dE]IK[dOrn]I[dF]H[dD]N; lactam 4-C)
- MIC [2]: > 64 µg/mL
- MIC [3, 9]: > 64 µg/mL
- MIC [4, 9]: > 64 µg/mL
- MIC [5, 9]: > 64 µg/mL
- MIC [6, 9]: > 64 µg/mL
- sensitivity of Janthinobacterium lividum strains to antibiotics [7]: resistant

Compound: O=C(N[C@H](CO)[C@H](O)c1ccc([N+](=O)[O-])cc1)C(Cl)Cl [Chloramphenicol]
- MIC [2]: 4 µg/mL (≈ 12.4 µM)
- sensitivity of Janthinobacterium lividum to antibiotic discs [1]: sensitive
- MIC, CLSI QC ranges [8]: 2 to 8 µg/mL
- MIC [3, 9]: 2 µg/mL (≈ 6.19 µM)
- MIC [4, 9]: 2 µg/mL (≈ 6.19 µM)
- MIC [5, 9]: 2 µg/mL (≈ 6.19 µM)
- MIC [6, 9]: 2 µg/mL (≈ 6.19 µM)
- sensitivity of Janthinobacterium lividum strains to antibiotics [7]: less sensitive

Compound: penicillin
- sensitivity of Janthinobacterium lividum to antibiotic discs [1]: sensitive

Compound: [H]/N=C(/N)N[C@H]1[C@H](O)[C@@H](O)[C@H](O[C@@H]2O[C@@H](C)[C@](O)(C=O)[C@H]2O[C@@H]2O[C@@H](CO)[C@H](O)[C@@H](O)[C@@H]2NC)[C@@H](N/C(N)=N\[H])[C@@H]1O [streptomycin]
- sensitivity of Janthinobacterium lividum to antibiotic discs [1]: sensitive

Compound: NCC[C@H](O)C(=O)N[C@@H]1C[C@H](N)[C@@H](O[C@H]2O[C@H](CN)[C@@H](O)[C@H](O)[C@H]2O)[C@H](O)[C@H]1O[C@H]1O[C@H](CO)[C@@H](O)[C@H](N)[C@H]1O [Amikacin]
- MIC [2]: 2 µg/mL (≈ 3.42 µM)
- MIC, CLSI QC ranges [8]: 0.5 to 4 µg/mL
- MIC [3, 9]: 1 µg/mL (≈ 1.71 µM)
- MIC [4, 9]: 2 µg/mL (≈ 3.42 µM)
- MIC [5, 9]: 2 µg/mL (≈ 3.42 µM)
- MIC [6, 9]: 2 µg/mL (≈ 3.42 µM)

Compound: O=C(O)c1cn(C2CC2)c2cc(N3CCNCC3)c(F)cc2c1=O [Ciprofloxacin]
- sensitivity of Janthinobacterium lividum to antibiotic discs [1]: sensitive
- MIC [3, 9]: 0.25 µg/mL (≈ 0.754 µM)
- MIC [4, 9]: 0.5 µg/mL (≈ 1.51 µM)
- MIC [5, 9]: 0.5 µg/mL (≈ 1.51 µM)
- MIC [6, 9]: 0.5 µg/mL (≈ 1.51 µM)

Compound: C[C@@H](O)[C@H]1C(=O)N2C(C(=O)O)=C(S[C@@H]3CN[C@H](C(=O)N(C)C)C3)[C@H](C)[C@H]12 [Meropenem]
- MIC [2]: < 0.063 µg/mL
- MIC [3, 9]: 8 µg/mL (≈ 20.9 µM)
- MIC [4, 9]: 2 µg/mL (≈ 5.22 µM)
- MIC [5, 9]: 2 µg/mL (≈ 5.22 µM)
- MIC [6, 9]: 2 µg/mL (≈ 5.22 µM)
- sensitivity of Janthinobacterium lividum strains to antibiotics [7]: less sensitive

Compound: CC1(C)S[C@@H]2[C@H](NC(=O)[C@H](N)c3ccccc3)C(=O)N2[C@H]1C(=O)O [ampicillin]
- sensitivity of Janthinobacterium lividum to antibiotic discs [1]: sensitive

From patent US12064459B2, “Compositions and methods for improving skin health and for the treatment and prevention of diseases, disorders and conditions associated with pathogenic microbes” (priority 2019, dated 2024)
